Data taken from ChEMBL document CHEMBL4840354, “Identification of Diarylurea Inhibitors of the Cardiac-Specific Kinase TNNI3K by Designing Selectivity Against VEGFR2, p38α, and B-Raf” (J Med Chem, 2021).

Experiments:
[1] = Permeability of compound incubated for 2 hrs by liquid chromatography analysis; format: ADME; conditions: read-out: permeability
[2] = Half life in po dosed rat administered as cassette dose; format: ADME, organism-based; conditions: in vivo
[3] = Dose normalized AUC in po dosed rat administered as cassette dose; format: ADME, organism-based; conditions: in vivo
[4] = species: Homo sapiens; assay: Selectivity index, ratio of IC50 for inhibition of p38alpha (unknown origin) to IC50 for inhibition of TNNI3K (unknown origin)
[5] = target: Serine/threonine-protein kinase B-raf (Homo sapiens, UniProt P15056); assay: Inhibition of B-Raf (unknown origin)
[6] = species: Homo sapiens; assay: Selectivity index, ratio of IC50 for inhibition of VEGFR2 (unknown origin) to IC50 for inhibition of TNNI3K (unknown origin)
[7] = target: Mitogen-activated protein kinase 14 (Homo sapiens, UniProt Q16539); assay: Inhibition of p38alpha (unknown origin)
[8] = target: T1, Serine/threonine-protein kinase TNNI3K (Homo sapiens, UniProt Q59H18); assay: Inhibition of human myc-TNNI3K expressed in HEK-MSR2 cells assessed as reduction in TNNI3K autophosphorylation preincubated for 30 mins followed by pervanadate addition and measured after 20 mins by DELFIA; format: cell-based
T1 sequence (Q59H18 whole entry): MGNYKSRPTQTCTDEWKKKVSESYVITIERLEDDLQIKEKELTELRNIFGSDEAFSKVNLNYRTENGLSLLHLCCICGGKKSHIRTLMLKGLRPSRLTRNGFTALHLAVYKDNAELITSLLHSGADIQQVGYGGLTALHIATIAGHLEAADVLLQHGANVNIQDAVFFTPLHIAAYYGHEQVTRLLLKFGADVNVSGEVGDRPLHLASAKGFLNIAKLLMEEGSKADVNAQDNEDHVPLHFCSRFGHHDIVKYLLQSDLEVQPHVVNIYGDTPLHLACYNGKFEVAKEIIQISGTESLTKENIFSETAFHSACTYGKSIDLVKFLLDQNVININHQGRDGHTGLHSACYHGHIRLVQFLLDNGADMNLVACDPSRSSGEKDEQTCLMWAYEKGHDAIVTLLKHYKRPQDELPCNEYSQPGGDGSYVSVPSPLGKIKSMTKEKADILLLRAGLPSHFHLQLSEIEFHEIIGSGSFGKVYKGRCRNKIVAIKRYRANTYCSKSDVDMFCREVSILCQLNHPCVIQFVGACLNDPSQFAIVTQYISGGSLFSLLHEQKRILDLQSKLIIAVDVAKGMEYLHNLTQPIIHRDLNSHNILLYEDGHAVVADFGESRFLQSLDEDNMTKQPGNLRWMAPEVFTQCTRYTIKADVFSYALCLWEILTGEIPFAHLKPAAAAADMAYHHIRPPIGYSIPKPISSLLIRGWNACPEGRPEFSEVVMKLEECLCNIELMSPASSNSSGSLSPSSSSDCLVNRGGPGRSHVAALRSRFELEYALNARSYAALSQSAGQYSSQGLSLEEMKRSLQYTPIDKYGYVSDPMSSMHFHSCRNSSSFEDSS

[9] = target: T1, Serine/threonine-protein kinase TNNI3K; assay: Inhibition of TNNI3K (unknown origin)
[10] = target: Vascular endothelial growth factor receptor 2 (Homo sapiens, UniProt P35968); assay: Inhibition of GST-6His tagged VEGFR2 (unknown origin) using biotin-aminohexyl-EEEEYFELVAKKKK-NH2 peptide substrate incubated for 90 mins by HTRF assay
[11] = target: Voltage-gated inwardly rectifying potassium channel KCNH2 (Homo sapiens, UniProt Q12809); assay: Inhibition of human ERG expressed in HEK293 cells; format: cell-based
[12] = target: T2, Serine/threonine-protein kinase TNNI3K (Homo sapiens) (UniProt Q59H18)
T2 sequence (whole entry): T1 sequence (Q59H18 whole entry)
Description: Binding affinity to full length human His-MBP-TNNI3K assessed as half life in presence of rhodamine green labeled GW805818X by fluorescence competitive binding assay

[13] = target: T3, Serine/threonine-protein kinase TNNI3K (Mus musculus) (UniProt Q5GIG6)
T3 sequence (whole entry): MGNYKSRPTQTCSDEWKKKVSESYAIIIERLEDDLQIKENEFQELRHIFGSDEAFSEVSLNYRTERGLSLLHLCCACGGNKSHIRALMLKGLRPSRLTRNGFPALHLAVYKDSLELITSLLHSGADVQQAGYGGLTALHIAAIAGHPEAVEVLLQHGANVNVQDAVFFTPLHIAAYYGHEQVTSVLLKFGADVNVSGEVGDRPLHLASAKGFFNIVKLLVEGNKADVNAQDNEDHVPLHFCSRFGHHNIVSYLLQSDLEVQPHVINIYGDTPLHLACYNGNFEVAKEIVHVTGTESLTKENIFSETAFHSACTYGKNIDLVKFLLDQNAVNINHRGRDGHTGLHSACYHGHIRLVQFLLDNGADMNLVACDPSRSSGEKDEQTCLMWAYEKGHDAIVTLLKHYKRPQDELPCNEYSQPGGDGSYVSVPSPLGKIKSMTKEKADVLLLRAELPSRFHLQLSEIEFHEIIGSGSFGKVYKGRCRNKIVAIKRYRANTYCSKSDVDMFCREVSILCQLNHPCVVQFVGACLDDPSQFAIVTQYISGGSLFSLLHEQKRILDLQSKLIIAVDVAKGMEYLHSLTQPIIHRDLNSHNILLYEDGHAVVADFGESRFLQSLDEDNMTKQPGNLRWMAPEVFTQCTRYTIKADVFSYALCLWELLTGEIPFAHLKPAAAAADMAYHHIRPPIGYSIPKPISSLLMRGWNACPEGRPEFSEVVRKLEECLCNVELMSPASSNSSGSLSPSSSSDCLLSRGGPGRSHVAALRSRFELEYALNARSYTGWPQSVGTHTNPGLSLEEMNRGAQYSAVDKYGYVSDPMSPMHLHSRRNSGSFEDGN
Description: Binding affinity to full length mouse His-MBP-TNNI3K assessed as half life in presence of rhodamine green labeled GW805818X by fluorescence competitive binding assay

[14] = target: T4, Serine/threonine-protein kinase TNNI3K (Mus musculus, UniProt Q5GIG6); assay: Binding affinity to full length mouse His-MBP-TNNI3K assessed as off-rate constant in presence of rhodamine green labeled GW805818X by fluorescence competitive binding assay
T4 sequence (Q5GIG6 whole entry): T3 sequence (whole entry)

[15] = target: T1, Serine/threonine-protein kinase TNNI3K; assay: Binding affinity to full length human His-MBP-TNNI3K assessed as off-rate constant in presence of rhodamine green labeled GW805818X by fluorescence competitive binding assay

Sequence of Vascular endothelial growth factor receptor 2 (P35968 whole entry): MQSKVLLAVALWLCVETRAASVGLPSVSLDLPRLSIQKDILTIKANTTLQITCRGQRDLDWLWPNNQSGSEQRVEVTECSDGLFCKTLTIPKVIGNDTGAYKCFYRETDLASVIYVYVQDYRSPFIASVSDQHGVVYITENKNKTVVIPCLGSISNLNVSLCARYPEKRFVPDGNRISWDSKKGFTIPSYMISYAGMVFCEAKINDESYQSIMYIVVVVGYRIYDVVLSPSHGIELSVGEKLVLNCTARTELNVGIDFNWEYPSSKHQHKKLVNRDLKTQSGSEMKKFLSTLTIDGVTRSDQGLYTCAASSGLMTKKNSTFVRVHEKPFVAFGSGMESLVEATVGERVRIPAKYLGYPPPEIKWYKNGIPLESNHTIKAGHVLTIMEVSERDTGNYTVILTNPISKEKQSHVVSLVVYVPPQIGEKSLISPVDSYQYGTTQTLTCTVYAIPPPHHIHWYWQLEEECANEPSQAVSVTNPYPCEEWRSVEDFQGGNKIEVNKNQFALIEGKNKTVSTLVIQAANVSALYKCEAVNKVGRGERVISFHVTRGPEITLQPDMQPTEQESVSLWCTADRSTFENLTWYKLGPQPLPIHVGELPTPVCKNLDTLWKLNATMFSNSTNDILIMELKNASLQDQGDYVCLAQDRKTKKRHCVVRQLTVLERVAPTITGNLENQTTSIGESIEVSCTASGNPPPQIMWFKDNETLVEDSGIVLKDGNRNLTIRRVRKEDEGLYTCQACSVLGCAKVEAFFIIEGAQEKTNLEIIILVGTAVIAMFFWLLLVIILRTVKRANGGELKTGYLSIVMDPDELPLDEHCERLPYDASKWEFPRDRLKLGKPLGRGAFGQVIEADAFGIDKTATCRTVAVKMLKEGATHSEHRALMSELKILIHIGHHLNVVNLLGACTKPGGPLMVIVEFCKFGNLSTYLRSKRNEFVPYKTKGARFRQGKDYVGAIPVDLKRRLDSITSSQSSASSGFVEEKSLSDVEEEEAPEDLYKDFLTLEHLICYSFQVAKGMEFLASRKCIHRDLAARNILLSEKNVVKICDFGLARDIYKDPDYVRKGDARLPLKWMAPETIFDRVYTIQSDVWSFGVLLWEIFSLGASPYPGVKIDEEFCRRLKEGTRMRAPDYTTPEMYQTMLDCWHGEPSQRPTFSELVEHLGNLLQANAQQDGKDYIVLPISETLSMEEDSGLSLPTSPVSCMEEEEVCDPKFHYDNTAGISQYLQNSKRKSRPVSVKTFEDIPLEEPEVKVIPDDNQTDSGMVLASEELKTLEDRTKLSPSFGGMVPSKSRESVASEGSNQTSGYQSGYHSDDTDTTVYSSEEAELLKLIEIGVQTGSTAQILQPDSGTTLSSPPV
Sequence of Serine/threonine-protein kinase B-raf (P15056 whole entry): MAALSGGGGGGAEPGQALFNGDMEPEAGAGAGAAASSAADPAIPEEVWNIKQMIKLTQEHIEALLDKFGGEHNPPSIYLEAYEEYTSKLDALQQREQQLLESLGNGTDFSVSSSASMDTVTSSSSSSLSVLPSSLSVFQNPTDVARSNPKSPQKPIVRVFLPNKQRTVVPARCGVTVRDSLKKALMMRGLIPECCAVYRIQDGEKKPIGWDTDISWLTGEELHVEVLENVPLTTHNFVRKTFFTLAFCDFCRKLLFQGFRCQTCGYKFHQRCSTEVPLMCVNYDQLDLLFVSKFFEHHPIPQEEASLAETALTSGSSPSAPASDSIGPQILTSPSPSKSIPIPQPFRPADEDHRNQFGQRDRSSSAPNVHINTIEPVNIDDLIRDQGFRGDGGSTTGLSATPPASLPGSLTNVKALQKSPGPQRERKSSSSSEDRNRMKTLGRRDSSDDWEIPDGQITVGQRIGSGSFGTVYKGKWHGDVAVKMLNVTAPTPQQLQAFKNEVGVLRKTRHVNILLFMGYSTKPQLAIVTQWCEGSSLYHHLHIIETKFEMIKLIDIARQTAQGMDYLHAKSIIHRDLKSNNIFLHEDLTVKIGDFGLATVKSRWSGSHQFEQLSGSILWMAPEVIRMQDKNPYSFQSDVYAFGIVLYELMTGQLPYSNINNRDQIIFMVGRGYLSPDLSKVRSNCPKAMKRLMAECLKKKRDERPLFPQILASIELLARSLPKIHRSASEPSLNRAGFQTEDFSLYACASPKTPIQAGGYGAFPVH
Sequence of Mitogen-activated protein kinase 14 (Q16539 whole entry): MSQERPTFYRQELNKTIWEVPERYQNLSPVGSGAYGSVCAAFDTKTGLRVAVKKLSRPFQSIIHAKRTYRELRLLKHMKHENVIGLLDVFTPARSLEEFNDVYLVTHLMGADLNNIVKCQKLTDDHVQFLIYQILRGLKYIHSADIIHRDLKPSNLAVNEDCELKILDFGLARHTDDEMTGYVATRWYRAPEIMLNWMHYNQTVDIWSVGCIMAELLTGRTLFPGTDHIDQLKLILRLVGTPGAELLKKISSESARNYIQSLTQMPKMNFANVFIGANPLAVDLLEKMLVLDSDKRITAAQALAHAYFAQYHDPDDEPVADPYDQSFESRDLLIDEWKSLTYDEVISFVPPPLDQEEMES
Sequence of Voltage-gated inwardly rectifying potassium channel KCNH2 (Q12809 whole entry): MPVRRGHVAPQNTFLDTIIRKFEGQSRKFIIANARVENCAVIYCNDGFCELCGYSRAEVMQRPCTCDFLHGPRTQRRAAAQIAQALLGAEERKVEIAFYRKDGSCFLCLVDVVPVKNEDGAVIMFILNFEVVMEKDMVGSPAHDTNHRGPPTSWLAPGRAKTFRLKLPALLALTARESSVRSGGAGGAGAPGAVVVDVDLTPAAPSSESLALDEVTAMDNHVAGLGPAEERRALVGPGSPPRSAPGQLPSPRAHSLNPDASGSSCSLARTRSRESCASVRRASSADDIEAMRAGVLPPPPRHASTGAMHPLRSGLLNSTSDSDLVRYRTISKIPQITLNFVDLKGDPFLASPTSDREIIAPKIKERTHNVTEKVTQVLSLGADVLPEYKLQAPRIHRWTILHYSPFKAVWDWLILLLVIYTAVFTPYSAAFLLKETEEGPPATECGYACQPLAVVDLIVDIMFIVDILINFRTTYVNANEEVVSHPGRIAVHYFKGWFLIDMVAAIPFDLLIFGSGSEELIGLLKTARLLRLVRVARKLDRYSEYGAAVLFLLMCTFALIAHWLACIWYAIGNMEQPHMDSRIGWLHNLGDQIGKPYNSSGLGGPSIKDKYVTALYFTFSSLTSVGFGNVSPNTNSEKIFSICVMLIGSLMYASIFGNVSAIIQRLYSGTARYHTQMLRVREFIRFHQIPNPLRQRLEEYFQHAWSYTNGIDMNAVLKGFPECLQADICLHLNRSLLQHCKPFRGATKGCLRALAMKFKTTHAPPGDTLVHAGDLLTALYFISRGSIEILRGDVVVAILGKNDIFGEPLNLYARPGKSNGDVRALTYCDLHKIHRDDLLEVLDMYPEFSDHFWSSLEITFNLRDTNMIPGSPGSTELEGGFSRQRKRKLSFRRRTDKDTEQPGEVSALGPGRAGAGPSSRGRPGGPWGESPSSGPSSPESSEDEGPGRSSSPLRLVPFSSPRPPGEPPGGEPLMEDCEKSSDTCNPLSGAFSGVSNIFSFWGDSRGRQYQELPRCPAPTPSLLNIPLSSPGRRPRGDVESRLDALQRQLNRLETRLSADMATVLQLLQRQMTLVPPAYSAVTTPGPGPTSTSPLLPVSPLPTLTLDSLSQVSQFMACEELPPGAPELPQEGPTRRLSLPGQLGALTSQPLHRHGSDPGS

In the case of `CNC(=O)c1cc(Oc2ccc(NC(=O)Nc3ccc(Cl)c(C(F)(F)F)c3)cc2)ccn1` [SORAFENIB], the Papp at 2 h [1] is reported as 110 nm/s, the half-life [2] is reported as 6.8 h and the AUC/dose [3] is reported as 5.8 kg·h/L.
With `CNc1cc(Oc2ccc(NC(=O)Nc3cccc(C(F)(F)F)c3)cc2)ncn1` the Ratio IC50 [4] was 25, the IC50 [5] was 0.5 µM and the Papp at 2 h [1] was 230 nm/s. For the same compound, the half-life [2] was 3.2 h, the Ratio IC50 [6] was 0.63 and the AUC/dose [3] was 3.8 kg·h/L. It also gave an IC50 [7] of 1 µM, an IC50 [8] of 0.02 µM and an IC50 [9] of 0.04 µM. It also gave an IC50 [10] of 0.025 µM.
For `CC(C)(O)CNc1cc(Oc2ccc(NC(=O)Nc3cccc(C(F)(F)F)c3)cc2)ncn1`, the Ratio IC50 [4] was 16, the IC50 [5] was 1.6 µM and the Papp at 2 h [1] was 210 nm/s. The half-life [2] was 3.7 h, the Ratio IC50 [6] was 8 and the AUC/dose [3] was 2 kg·h/L. The IC50 [7] was 0.63 µM, the IC50 [8] was 0.05 µM and the IC50 [9] was 0.04 µM. It also gave an IC50 [10] of 0.32 µM.
In the case of `CNS(=O)(=O)c1ccc(N(C)C)c(Nc2ncnc3[nH]ccc23)c1`, the IC50 [5] is reported as 0.006 µM and the AUC/dose [3] is reported as 0.59 kg·h/L.
Work on `CNc1cc(Oc2c(Cl)cc(NC(=O)Nc3cccc(C(F)(F)F)c3)cc2Cl)ncn1` yielded an IC50 [11] greater than 31.6 µM, a T1/2 [12] of 1.3 h and a Ratio IC50 [4] of 80. The IC50 [5] was greater than 2 µM, the T1/2 [13] was 0.417 h and the Papp at 2 h [1] was 74 nm/s. It also gave a half-life [2] of 5.4 h, a Ratio IC50 [6] of 40 and an AUC/dose [3] of 3.8 kg·h/L. It also gave an IC50 [7] of 0.8 µM, a Ki [14] of 0.013 µM and an IC50 [8] of 0.1 µM. It also gave a Ki [15] of 0.00054 µM, an IC50 [9] of 0.01 µM and an IC50 [10] of 0.4 µM.
Compound `CCS(=O)(=O)c1ccc(S(=O)(=O)NC)cc1Nc1cc(Nc2ccc(Cl)cn2)ncn1` has an AUC/dose [3] of 0.56 kg·h/L and an IC50 [9] of no more than 0.01 µM.
In the case of `O=C(Nc1ccc(Oc2cc(NCCO)ncn2)cc1)Nc1cccc(C(F)(F)F)c1`, the Ratio IC50 [4] is reported as 31, the IC50 [5] is reported as 1 µM and the Papp at 2 h [1] is reported as 82 nm/s. The half-life [2] was 4.5 h, the Ratio IC50 [6] was 2.5 and the AUC/dose [3] was 0.3 kg·h/L. The IC50 [7] was 1 µM, the IC50 [8] was 0.04 µM and the IC50 [9] was 0.032 µM. For the same compound, the IC50 [10] was 0.079 µM.
With `CNc1cc(Oc2c(C)cc(NC(=O)Nc3cccc(C(F)(F)F)c3)cc2C)ncn1` the Ratio IC50 [4] was 250, the IC50 [5] was 2 µM and the Papp at 2 h [1] was 295 nm/s. It also gave a half-life [2] of 2.4 h, a Ratio IC50 [6] of 40 and an AUC/dose [3] of 1.5 kg·h/L. For the same compound, the IC50 [7] was 6.3 µM, the IC50 [8] was 0.0079 µM and the IC50 [10] was 1 µM.
With `CCc1cc(NC(=O)Nc2cccc(C(F)(F)F)c2)cc(Cl)c1Oc1cc(NC)ncn1` the Ratio IC50 [4] was greater than 160, the IC50 [5] was greater than 2 µM and the Papp at 2 h [1] was 59 nm/s. For the same compound, the half-life [2] was 3.7 h, the Ratio IC50 [6] was greater than 250 and the AUC/dose [3] was 1.2 kg·h/L. The IC50 [7] was 1.6 µM, the IC50 [8] was 0.1 µM and the IC50 [9] was no more than 0.01 µM. For the same compound, the IC50 [10] was 2.5 µM.
For `CNS(=O)(=O)c1ccc(N(C)C)c(Nc2ncnc3cc(OC)c(OC)cc23)c1`, the IC50 [5] was 1 µM and the AUC/dose [3] was 0.18 kg·h/L.
Compound `CNc1cc(Oc2c(F)cc(NC(=O)Nc3cccc(C(F)(F)F)c3)cc2F)ncn1` has a Ratio IC50 [4] of 25, an IC50 [5] greater than 2 µM and a Ratio IC50 [6] of 2.5. The IC50 [7] was 0.5 µM, the IC50 [9] was 0.02 µM and the IC50 [10] was 0.05 µM.
For `CC(C)CNc1cc(Oc2ccc(NC(=O)Nc3cccc(C(F)(F)F)c3)cc2)ncn1`, the Ratio IC50 [4] was 5, the IC50 [5] was 1.26 µM and the Ratio IC50 [6] was 6.4. For the same compound, the IC50 [7] was 0.25 µM, the IC50 [9] was 0.05 µM and the IC50 [10] was 0.32 µM.
`CNc1nccc(Oc2ccc(NC(=O)Nc3cccc(C(F)(F)F)c3)cc2)n1` showed a Ratio IC50 [4] of 1, an IC50 [5] of 0.063 µM and a Ratio IC50 [6] of 0.64. For the same compound, the IC50 [7] was 0.05 µM, the IC50 [9] was 0.05 µM and the IC50 [10] was 0.032 µM.
Compound `CNc1cc(Oc2ccc(NC(=O)Nc3cccc(C(F)(F)F)c3)cc2C)ncn1` has a Ratio IC50 [4] greater than 63, an IC50 [5] of 0.16 µM and a Ratio IC50 [6] greater than 6.3. It also gave an IC50 [7] of 0.63 µM, an IC50 [9] of no more than 0.01 µM and an IC50 [10] of 0.063 µM.
Work on `Nc1cc(Oc2ccc(NC(=O)Nc3cccc(C(F)(F)F)c3)cc2)ncn1` yielded a Ratio IC50 [4] of 40, an IC50 [5] of 1.6 µM and a Papp at 2 h [1] of 245 nm/s. It also gave a half-life [2] of 3.2 h, a Ratio IC50 [6] of 0.32 and an AUC/dose [3] of 0.4 kg·h/L. It also gave an IC50 [7] of 1 µM, an IC50 [8] of 0.016 µM and an IC50 [9] of 0.025 µM. For the same compound, the IC50 [10] was 0.0079 µM.
Compound `C[C@H](O)CNc1cc(Oc2ccc(NC(=O)Nc3cccc(C(F)(F)F)c3)cc2)ncn1` has a Ratio IC50 [4] of 10, an IC50 [5] of 0.8 µM and a Ratio IC50 [6] of 10. For the same compound, the IC50 [7] was 0.32 µM, the IC50 [9] was 0.032 µM and the IC50 [10] was 0.32 µM.
